The results in this text go back to US5869500A, “Pyridone compounds useful in treating Alzheimer's disease” (Hoffmann-La Roche Inc., priority 1996, dated 1999).

Counter-ions that a name gives are not always drawn.

For orientation: IC50 means the midpoint of a concentration-inhibition curve. Higher therefore signals weaker potency in that assay.

Experiment [1] relates to Aβ production in HEK cells over-expressing Wild type β-APP. The experiment is described as follows: Aβ production inhibition, sandwich-ELISA in HEK cells which over-express Wild type β-APP (SE-WT). In kind it is cell-based, human. The conditions noted are these: for Emax: HEK293, maximum inhibition plateau, read-out: SE-WT max. inhibition %. The procedure: The effect of test substances on the inhibition of Aβ-amyloid production can be measured in the supernatant of cell cultures of β-APP expressed cells using ELISA tests or other quantitative determination methods for β-APP degradation products. Typically, 8×10^5 cells (e.g. HEK cells, which express recombinant human β-APP variants) are plated out in each well of a culture dish having 24 wells in growth media such as e.g. OPTIMEM (Gibco) and the test compound is then added. After an incubation period of 24 to 48 hours at 37° C. in a 10% CO2 atmosphere the supernatant is removed from the cell cultures and the β-APP degradation products (e.g. Aβ or β-[…]) are determined with the aid of ELISA (or sandwich ELISA) analysis or by means of quantitative immunoprecipitation (after metabolic radiolabelling of the cell proteins). Typically, 300 μl of the cell supernatant are tested according to the state of the art for ELISA tests in culture dishes having 96 wells. In the case of sandwich ELISA for Aβ, the binding antibody can be directed against the first 16 amino acids of Aβ-peptide (e.g. 6E10 Senetek, Maryland Heights, Mo.) and the detection antibody can be directed against amino acids 17-40 or 17-42 of Aβ and carries a detection system such as e.g. peroxidase. A simple ELISA test with an antibody, e.g. 22C11 (Boehringer Mannheim), can be used as the test for […]; the second antibody can be an anti-(mouse) Ig having a detection system, such as e.g. peroxidase. The peroxidase reaction can be carried out e.g. using a TMB substrate (BioRAD) and the measurements can be carried out at 650 nm using an ELISA reading apparatus. […] SE-SFAD signifies the Aβ production inhibition measured using sandwich-ELISA in HEK cells, SFAD signifies over-expressed mutated β-APP, and SE-WT signifies the Aβ production inhibition measured using sandwich-ELISA in HEK cells which over-express Wild type β-APP. The IC50 values are based on the respective plateau of maximum inhibition.
In general terms: An ELISA detects its analyte on a solid surface through an enzyme-linked reagent.

In experiment [2] the test system is Aβ production in HEK cells over-expressing mutated β-APP (SFAD). Description: Aβ production inhibition, sandwich-ELISA in HEK cells, over-expressed mutated β-APP (SE-SFAD). Type of experiment: cell-based, human. To be noted: for IC50: based on the respective plateau of maximum inhibition; for Emax: read-out: SE-SFAD max. inhibition %. Put shortly:
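HEK cells expressing recombinant human wild-type or mutated (SFAD) β-APP treated with compound for 24 to 48 hours at 37° C, 10% CO2. IC50 based on plateau of maximum inhibition.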

The mark [3] stands for this setting: Homo sapiens, HEK293, based on the respective plateau of maximum inhibition.
Where [4] appears, read: Homo sapiens, HEK293, HEK cells.
Setting [5] is: Homo sapiens, HEK293, HEK cells, maximum inhibition plateau.

As for `COCCN(C(=O)c1cc(-c2ccc(OCc3ccccc3)cc2)c(=O)n2ccc3cc(Br)sc3c12)c1ccccc1` [Compound 77, 8-(4-Benzyloxy-phenyl)-2-bromo-7-oxo-7H-thieno[2,3-a]quinolizine-10-carboxylic acid (2-methoxy-ethyl)-phenyl-amide], the IC50 in experiment [1] (setting [3]) and in experiment [2] (setting [4]) was 0.2 µM each time. Further, the results for the Emax in experiment [1] (Homo sapiens) and in experiment [2] (setting [5]) were 100% and 80%, respectively.

`COC1CCCCC1N(C)C(=O)c1cc(-c2ccccc2)c(=O)n2ccc3ccsc3c12` (stereo not drawn) [Compound 26, 7-Oxo-8-phenyl-7H-thieno[2,3-a]quinolizine-10-(2-methoxycyclohexyl)-methyl-amide]: the 50% inhibitory concentration (IC50) in experiment [1] (setting [3]) was determined as 1.2 µM; in experiment [2] (setting [4]), 5 µM. The Emax in experiment [1] (Homo sapiens) is 100%; in experiment [2] (setting [5]), 80%.

Take `CCCN(CCOC)C(=O)c1cc(-c2ccc(C(C)(C)C)cc2)c(=O)n2ccc3ccsc3c12` [Compound 108, 8-(4-tert-Butyl-phenyl)-7-oxo-7H-thieno[2,3-a]quinolizine-10-carboxylicacid (2-methoxy-ethyl)-propyl-amide]: the IC50 turned out to be 1 µM in experiment [1] (setting [3]) and 1.4 µM in experiment [2] (setting [4]). Further, the Emax in experiment [1] (Homo sapiens) and in experiment [2] (setting [5]) was 100% each time.

Consider `CCCOC1CCN(C(=O)c2cc(-c3ccccc3)c(=O)n3ccc4ccsc4c23)C1` (stereo not drawn) [Compound 10, 8-Phenyl-10-(3-propoxy-pyrrolidine-1-carbonyl)-thieno[2,3-a]-quinolizin-7-one], for which the IC50 in experiment [1] (setting [3]) came to 7 µM; in experiment [2] (setting [4]), 6.6 µM. Further, the Emax in experiment [1] (Homo sapiens) and in experiment [2] (setting [5]) was 50% throughout.

On to “8-(2-Benzoylamino-phenyl)-7-oxo-8-p-tolyl-7H-thieno[2,3-a]-quinolizine-10- carboxylic acid (2-methoxy-ethyl)-phenyl-amide [Compound 152]”, for which the IC50 in experiment [1] (based on the respective plateau of maximum inhibition) turned out to be 1.5 µM; in experiment [2] (HEK cells) it was 1.4 µM. For the same molecule, the “SE-WT max. inhibition %” value in experiment [1] (maximum inhibition plateau) is recorded as 50-90%. For the same molecule, the “SE-SFAD max. inhibition %” value in experiment [2] (HEK cells, maximum inhibition plateau) is recorded as 100%.

As for `O=C(Nc1nccs1)c1cc(-c2ccccc2)c(=O)n2ccc3ccsc3c12` [Compound 49, 7-Oxo-8-phenyl-7H-thieno[2,3-a]quinolizine-10-carboxylic acid thiazol-2-yl-amide], the IC50 worked out at 0.5 µM in experiment [1] (setting [3]) and 0.7 µM in experiment [2] (setting [4]). In addition, the Emax in experiment [1] (Homo sapiens) and in experiment [2] (setting [5]) was 50% each time.

Consider `COC(=O)c1cc(-c2ccc(C(C)(C)C)cc2)c(=O)n2ccc3ccsc3c12` [Compound 106, Methyl 8-(4-tert-butyl-phenyl)-7-oxo-7H-thieno[2,3-a]quinolizine-10-carboxylate], for which the IC50 in experiment [1] (setting [3]) came to 0.8 µM; in experiment [2] (setting [4]), 2.3 µM. The Emax in experiment [1] (Homo sapiens) was found to be 95%; in experiment [2] (setting [5]), 85%.

In the case of `CCOC1CCN(C(=O)c2cc(-c3ccccc3)c(=O)n3ccc4ccsc4c23)C1` (stereo not drawn) [Compound 9, 10-(3-Ethoxy-pyrrolidine-1-carbonyl)-8-phenyl-thieno[2,3-a]quinolizin-7-one], the half-maximal inhibitory concentration (IC50) in experiment [1] (setting [3]) worked out at 40 µM; in experiment [2] (setting [4]), 5 µM. Further, the Emax turned out to be 50% in experiment [1] (Homo sapiens) and 35% in experiment [2] (setting [5]).

Turning to `CCN(CCOC)C(=O)c1cc(-c2ccccc2)c(=O)n2ccc3ccsc3c12` [Compound 20, 7-Oxo-8-phenyl-7H-thieno[2,3-a]quinolizine-10-carboxylic acid (2-methoxy-ethyl)-ethyl-amide], the IC50 in experiment [1] (setting [3]) was determined as 9 µM; in experiment [2] (setting [4]), 15 µM. In addition, the results for the Emax in experiment [1] (Homo sapiens) and in experiment [2] (setting [5]) were 70% and 30%, respectively.

With `COC(=O)c1cc(-c2ccccc2)c(=O)n2ccccc12` [Compound 33, Methyl 4-oxo-3-phenyl-4H-quinolizine-1-carboxylate], the half-inhibitory concentration (IC50) in experiment [1] (setting [3]) came out at 5 µM; in experiment [2] (setting [4]), 6 µM. Also, the Emax in experiment [1] (Homo sapiens) and in experiment [2] (setting [5]) was 40% in each case.

Regarding `COC1CN(C(=O)c2cc(-c3ccccc3)c(=O)n3ccc4ccc(Cl)cc4c23)C1` [Compound 40, 10-Chloro-1-(3-methoxy-azetidine-1-carbonyl)-3-phenyl-pyrido-[2,1-a]isoquinolin-4-one], the half-maximal inhibitory concentration (IC50) was 7 µM in experiment [1] (setting [3]) and 6.8 µM in experiment [2] (setting [4]). For the same molecule, the Emax in experiment [1] (Homo sapiens) was 70%; in experiment [2] (setting [5]) it was 100%.

In the case of `COC1CCN(C(=O)c2cc(-c3ccccc3)c(=O)n3ccc4ccc(Cl)cc4c23)C1` (stereo not drawn) [Compound 41, 10-Chloro-1-(3-methoxy-pyrrolidine-1-carbonyl)-3-phenyl-pyrido [2,1-a]isoquinolin-4-one], the IC50 in experiment [1] (setting [3]) was determined as 3.5 µM; in experiment [2] (setting [4]) it was 6 µM. Besides, the Emax is 75% in experiment [1] (Homo sapiens) and 100% in experiment [2] (setting [5]).

Take `O=c1c(-c2ccccc2)cc(-c2nc(C3CC3)no2)c2c3sccc3ccn12` [Compound 62, 10-(3-Cyclopropyl-[1,2,4]oxadiazol-5-yl)-8-phenyl-thieno[2,3-a]-quinolizin-7-one]: the half-maximal inhibitory concentration (IC50) was 2.7 µM in experiment [1] (setting [3]) and 0.5 µM in experiment [2] (setting [4]). Further, the Emax in experiment [1] (Homo sapiens) was determined as 80%; in experiment [2] (setting [5]), 65%.

Turning to `COC(=O)c1cc(-c2ccccc2)c(=O)n2ccc3ccc(Cl)cc3c12` [Compound 36, Methyl 10-chloro-4-oxo-3-phenyl-4H-pyrido [2,1-a]isoquinoline-1-carboxylate], the concentration for half-maximal inhibition (IC50) was found to be 1 µM in experiment [1] (setting [3]) and 2.8 µM in experiment [2] (setting [4]). The Emax worked out at 60% in experiment [1] (Homo sapiens) and 40% in experiment [2] (setting [5]).

`O=C(OCC#CCN1CCOCC1)c1cc(-c2ccccc2)c(=O)n2ccc3ccsc3c12` [Compound 46, 4-(Morpholin-4-yl)-but-2-ynyl 7-oxo-8-phenyl-7H-thieno[2,3-a]-quinolizine-10-carboxylate]: the IC50 in experiment [1] (setting [3]) amounted to 1 µM; in experiment [2] (setting [4]), 4 µM. Moreover, the Emax in experiment [1] (Homo sapiens) came out at 50%; in experiment [2] (setting [5]), 70%.

Turning to `COCCN(C(=O)c1cc(-c2ccc(OCc3ccccc3)cc2)c(=O)n2ccc3cc(I)sc3c12)c1ccccc1` [Compound 81, 8-(4-Benzyloxy-phenyl)-2-iodo-7-oxo-7H-thieno[2,3-a]quinolizine-10-carboxylic acid (2-methoxy-ethyl)-phenyl-amide], the IC50 is 1.2 µM in experiment [1] (setting [3]) and less than 1 µM in experiment [2] (setting [4]). For the same molecule, the Emax turned out to be 100% in experiment [1] (Homo sapiens) and 50% in experiment [2] (setting [5]).

Turning to `O=C(OCCN1CCOCC1)c1cc(-c2ccccc2)c(=O)n2ccc3ccsc3c12` [Compound 32, 2-Morpholin-4-yl-ethyl 7-oxo-8-phenyl-7H-thieno[2,3-a]quinolizine-10-carboxylate hydrochloride], the IC50 in experiment [1] (setting [3]) was 3 µM; in experiment [2] (setting [4]), 30 µM. For the same molecule, the Emax in experiment [1] (Homo sapiens) and in experiment [2] (setting [5]) was 100% throughout.

Turning to `O=C(OCC#CCN1CCCC1)c1cc(-c2ccccc2)c(=O)n2ccc3ccsc3c12` [Compound 47, 4-(Pyrrolidin-1-yl)-but-2-ynyl 7-oxo-8-phenyl-7H-thieno[2,3-a]-quinolizine-10-carboxylate methanesulphonate], the IC50 is 1.5 µM in experiment [1] (setting [3]) and 5 µM in experiment [2] (setting [4]). Further, the Emax in experiment [1] (Homo sapiens) and in experiment [2] (setting [5]) was 55% throughout.

Regarding `COc1cccc(-c2cc(C(=O)NCc3ccccc3)c3c4sccc4ccn3c2=O)c1` [Compound 116, 8-(3-Methoxy-phenyl)-7-oxo-7H-thieno[2,3-a]quinolizine-10-carboxylic acid benzyl-amide], the IC50 was determined as 1 µM in experiment [1] (setting [3]) and 0.8 µM in experiment [2] (setting [4]). The Emax in experiment [1] (Homo sapiens) is 60 to 80%; in experiment [2] (setting [5]), 100%.

With `O=C(ON1C(=O)CCC1=O)c1cc(-c2ccccc2)c(=O)n2ccc3ccsc3c12` [Compound 43, 2,5-Dioxo-pyrrolidin-1-yl 7-oxo-8-phenyl-7H-thieno[2,3-a]quinolizine-10-carboxylate], the half-inhibitory concentration (IC50) came to 5 µM in experiment [1] (setting [3]) and 2 µM in experiment [2] (setting [4]). In addition, the Emax was 70% in experiment [1] (Homo sapiens) and 50% in experiment [2] (setting [5]).

For the molecule `O=C(OCc1cccs1)c1cc(-c2ccccc2)c(=O)n2ccc3ccsc3c12` [Compound 55, Thiophen-2-yl-methyl 7-oxo-8-phenyl-7H-thieno[2,3-a]quinolizine-10-carboxylate], the IC50 was determined as 5 µM in experiment [1] (setting [3]) and 4 µM in experiment [2] (setting [4]). The Emax stood at 60% in experiment [1] (Homo sapiens) and 50% in experiment [2] (setting [5]).
